In general, pEC50 refers to the EC50 on a negative log10 scale, so that one unit is a factor of ten.

Data on three molecules can be found in patent publication US20250353891A1 (MEDIMMUNE LIMITED, priority 2022, published 2025).

SMILES strings stand for the structures. pEC50: −log10 of the molar value. Starred links: 1 amine or outer side, 2 acyl side, 3 side chain; linkers in the order of their positions; H or OH if unused. Non-standard residues stand in square brackets, D forms with d. Residues, ends and D or L forms follow the SMILES beside them. Groups on a side chain read outwards from the residue. *: point of attachment. C18 diacid = O=C(O)CCCCCCCCCCCCCCCCC(=O)*; γGlu = O=C(O)[C@H](CCC(=O)[*:2])N[*:1]; αMeF = C[C@](N)(Cc1ccccc1)C(=O)O; AEEA = NCCOCCOCC(=O)O; Aib = CC(C)(N)C(=O)O

In test [1] the target is human GLP-1 receptor (hGLP-1R) (Homo sapiens, UniProt P43220). The test can be described thus: cAMP production (HTRF) in CHO cells expressing hGLP-1R. Type of test: cell-based. More on the design: expressed in transfected cells. As to conditions: for pEC50: Table 6, peptides modified at position 17, cAMP in CHO hGLP-1R cells, geometric mean, read-out: hGLP-1R EC50; for % Relative Potency Ratio: Table 6, % GLP-1R activity relative to GLP-1 / % GlucR activity relative to glucagon. The gist of the method:
(§1)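 Potency values represent EC50 from 4-parameter logistic curves of HTRF % Delta F signal. Receptor-expressing CHO cells (hGCGR 2×10^5 cells/mL, hGLP-1R 1×10^5 cells/mL) were exposed for 30 min at room temperature before two-step cAMP detection.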
A general note: Cyclic AMP is a second messenger, typically raised through Gs and lowered through Gi signalling.

The target in test [2] is human glucagon receptor (hGCGR) (Homo sapiens, UniProt P47871). The test can be described thus: cAMP production (HTRF) in CHO cells expressing hGCGR. Type of test: cell-based. More on the design: expressed in transfected cells. The following applies: Table 6, peptides modified at position 17; cAMP in CHO hGCGR cells; geometric mean; read-out: hGluc-R EC50. The gist of the method: as §1
human glucagon receptor (hGCGR), sequence (P47871 26-477): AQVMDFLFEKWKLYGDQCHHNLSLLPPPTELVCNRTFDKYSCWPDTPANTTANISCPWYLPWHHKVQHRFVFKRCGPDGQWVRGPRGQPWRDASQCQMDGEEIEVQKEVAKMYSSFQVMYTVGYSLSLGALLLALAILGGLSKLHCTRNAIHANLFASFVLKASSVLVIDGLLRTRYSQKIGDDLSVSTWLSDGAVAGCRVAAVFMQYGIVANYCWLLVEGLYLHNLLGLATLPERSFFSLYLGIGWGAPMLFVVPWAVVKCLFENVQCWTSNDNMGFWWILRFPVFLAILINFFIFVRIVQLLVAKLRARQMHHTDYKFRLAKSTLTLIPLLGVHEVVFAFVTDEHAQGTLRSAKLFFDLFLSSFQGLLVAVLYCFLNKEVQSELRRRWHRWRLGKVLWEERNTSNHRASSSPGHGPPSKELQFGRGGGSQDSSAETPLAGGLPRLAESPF

human GLP-1 receptor (hGLP-1R), sequence (P43220 24-463): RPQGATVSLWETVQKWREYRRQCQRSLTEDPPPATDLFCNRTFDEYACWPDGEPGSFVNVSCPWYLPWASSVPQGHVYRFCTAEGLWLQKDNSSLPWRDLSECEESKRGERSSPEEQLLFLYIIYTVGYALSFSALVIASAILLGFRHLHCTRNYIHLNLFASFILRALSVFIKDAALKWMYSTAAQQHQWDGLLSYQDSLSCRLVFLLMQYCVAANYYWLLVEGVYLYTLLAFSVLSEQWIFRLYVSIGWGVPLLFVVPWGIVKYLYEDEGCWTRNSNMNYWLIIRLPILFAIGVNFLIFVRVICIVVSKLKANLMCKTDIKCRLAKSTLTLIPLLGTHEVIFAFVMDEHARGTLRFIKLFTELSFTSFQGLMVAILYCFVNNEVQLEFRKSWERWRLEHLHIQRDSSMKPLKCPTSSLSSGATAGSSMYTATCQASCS

Regarding `CC[C@H](C)[C@H](NC(=O)[C@H](Cc1c[nH]c2ccccc12)NC(=O)[C@H](CCCNC(=N)N)NC(=O)[C@@H](NC(=O)[C@H](Cc1ccccc1)NC(=O)[C@H](CC(=O)O)NC(=O)[C@H](CCC(N)=O)NC(=O)[C@H](C)NC(=O)[C@H](CCCNC(=N)N)NC(=O)[C@H](CCCCNC(=O)COCCOCCNC(=O)COCCOCCNC(=O)CC[C@H](NC(=O)CCCCCCCCCCCCCCCCC(=O)O)C(=O)O)NC(=O)[C@H](CO)NC(=O)[C@H](CC(=O)O)NC(=O)[C@H](CC(C)C)NC(=O)[C@](C)(Cc1ccccc1)NC(=O)[C@H](CCCCN)NC(=O)[C@H](CO)NC(=O)[C@@H](NC(=O)[C@H](CC(=O)O)NC(=O)[C@H](CO)NC(=O)[C@@H](NC(=O)[C@H](Cc1ccccc1)NC(=O)[C@@H](NC(=O)CNC(=O)[C@H](CCC(N)=O)NC(=O)C(C)(C)NC(=O)[C@@H](N)Cc1c[nH]cn1)[C@@H](C)O)[C@@H](C)O)C(C)C)C(C)C)C(=O)N[C@@H](C)C(=O)N[C@@H](CCC(=O)O)C(=O)NC(C)(C)C(=O)NCC(=O)O` [Peptide 148] (H-H[Aib]QGTFTSDVSK[αMeF]LDSK([AEEA-AEEA-γGlu-C18 diacid])RAQDFVRWIAE[Aib]G-OH; N-terminus assumed), in test [1], the pEC50 is 10.40 and the “% Relative Potency Ratio” value is recorded as 27.9. In addition, the pEC50 in test [2] is 9.25.
Turning to `CC(C)C[C@H](NC(=O)[C@](C)(Cc1ccccc1)NC(=O)[C@H](CCCCN)NC(=O)[C@H](CO)NC(=O)[C@@H](NC(=O)[C@H](CC(=O)O)NC(=O)[C@H](CO)NC(=O)[C@@H](NC(=O)[C@H](Cc1ccccc1)NC(=O)[C@@H](NC(=O)CNC(=O)[C@H](CCC(N)=O)NC(=O)C(C)(C)NC(=O)[C@@H](N)Cc1c[nH]cn1)[C@@H](C)O)[C@@H](C)O)C(C)C)C(=O)N[C@@H](CC(=O)O)C(=O)N[C@@H](CO)C(=O)N[C@@H](CCCCNC(=O)COCCOCCNC(=O)COCCOCCNC(=O)CC[C@H](NC(=O)CCCCCCCCCCCCCCCCC(=O)O)C(=O)O)C(=O)N[C@@H](CCCNC(=N)N)C(=O)N[C@@H](C)C(=O)N[C@@H](CCC(N)=O)C(=O)N[C@@H](CC(=O)O)C(=O)N[C@@H](Cc1ccccc1)C(=O)N[C@H](C(=O)N[C@@H](CCCNC(=N)N)C(=O)N[C@@H](Cc1c[nH]c2ccccc12)C(=O)N[C@H](C(=O)N[C@H](C(=O)N[C@@H](CCC(=O)O)C(=O)NC(C)(C)C(=O)NCC(=O)O)C(C)C)C(C)C)C(C)C` [Peptide 149] (H-H[Aib]QGTFTSDVSK[αMeF]LDSK([AEEA-AEEA-γGlu-C18 diacid])RAQDFVRWVVE[Aib]G-OH; N-terminus assumed), in test [1], the pEC50 was 11.06 and the “% Relative Potency Ratio” value turned out to be 602.8. The pEC50 in test [2] was 8.58.
In the same order, the values of `CC(C)C[C@H](NC(=O)[C@H](Cc1c[nH]c2ccccc12)NC(=O)[C@H](CCC(N)=O)NC(=O)[C@@H](NC(=O)[C@H](Cc1ccccc1)NC(=O)[C@H](CC(=O)O)NC(=O)[C@H](CCC(N)=O)NC(=O)[C@H](C)NC(=O)[C@H](CCCNC(=N)N)NC(=O)[C@H](CCCCNC(=O)COCCOCCNC(=O)COCCOCCNC(=O)CC[C@H](NC(=O)CCCCCCCCCCCCCCCCC(=O)O)C(=O)O)NC(=O)[C@H](CO)NC(=O)[C@H](CC(=O)O)NC(=O)[C@H](CC(C)C)NC(=O)[C@](C)(Cc1ccccc1)NC(=O)[C@H](CCCCN)NC(=O)[C@H](CO)NC(=O)[C@@H](NC(=O)[C@H](CC(=O)O)NC(=O)[C@H](CO)NC(=O)[C@@H](NC(=O)[C@H](Cc1ccccc1)NC(=O)[C@@H](NC(=O)CNC(=O)[C@H](CCC(N)=O)NC(=O)C(C)(C)NC(=O)[C@@H](N)Cc1c[nH]cn1)[C@@H](C)O)[C@@H](C)O)C(C)C)C(C)C)C(=O)N[C@@H](CC(C)C)C(=O)NC(C)(C)C(=O)N[C@H](C(=O)N[C@@H](CCC(=O)O)C(=O)O)[C@@H](C)O` [Peptide 150] (H-H[Aib]QGTFTSDVSK[αMeF]LDSK([AEEA-AEEA-γGlu-C18 diacid])RAQDFVQWLL[Aib]TE-OH; N-terminus assumed) are 9.78, 4.2 and 9.45.
